# Source: patent US10301288B2, “Kinase inhibitors” (Topivert Pharma Limited, priority 2013, dated 2019)
# What was measured:
# [1] = test system: PBMCs; assay: (c) IL-2 and IFN gamma release in CD3/CD28 stimulated PBMC cells; type: cell-based; conditions: Homo sapiens
# Experimental: PBMCs from healthy subjects are separated from whole blood using a density gradient (Lymphoprep, Axis-Shield Healthcare). Cells are added to a 96 well plate pre-coated with a mixture of CD3/CD28 monoclonal antibodies (0.3 ug/ml eBioscience and 3 ug/ml BD Pharmingen respectively). Compound at the desired concentration is then added to the wells and the plate left for 3 days under normal tissue culture conditions. […] The IC50 is determined from the dose response curve.
# [2] = molecular target: Syk (Homo sapiens (Human), UniProt P43405); assay: Syk enzyme inhibition (FRET); type: biochemical
# Experimental: (§1) The enzyme inhibitory activities of compounds disclosed herein are determined by FRET using synthetic peptides labelled with both donor and acceptor fluorophores (Z-LYTE, Invitrogen Ltd., Paisley, UK).
# (§2) The inhibitory activities of compounds of the invention against c-Src and Syk enzymes (Invitrogen), are evaluated in a similar fashion to that described hereinabove. The relevant enzyme (3000 ng/mL or 2000 ng/mL respectively, 2.5 μL) is incubated with the test compound (either 4 μg/mL, 0.4 μg/mL, 0.04 μg/mL, or 0.004 μg/mL, 2.5 μL each) for 2 hr at RT. The FRET peptides (8 μM. 2.5 μL), and appropriate ATP solutions (2.5 μL, 800 μM for c-Src, and 60 μM ATP for Syk) are then added to the enzymes/compound mixtures and incubated for 1 hr. Development reagent (protease, 5 μL) is added for 1 hr prior to detection in a fluorescence microplate reader (Varioskan® Flash, ThermoFisher Scientific).
# (§3) In all cases, the site-specific protease cleaves non-phosphorylated peptide only and eliminates the FRET signal. Phosphorylation levels of each reaction are calculated using the ratio of coumarin emission (donor) over fluorescein emission (acceptor), for which high ratios indicate high phosphorylation and low ratios indicate low phosphorylation levels.
# [3] = test system: PBMCs; assay: (i) Cell mitosis assay in PBMCs; type: cell-based; conditions: Homo sapiens, PBMC, 5 μg/mL
# Experimental: PBMCs from healthy subjects are separated from whole blood (Quintiles, London, UK) using a density gradient (Histopaque®-1077, Sigma-Aldrich, Poole, UK). The PBMCs (3 million cells per sample) are subsequently treated with 2% PHA (Sigma-Aldrich, Poole, UK) for 48 hr, followed by a 20 hr exposure to varying concentrations of test compounds. At 2 hr before collection, PBMCs are treated with demecolcine (0.1 μg/mL; Invitrogen, Paisley, UK) to arrest cells in metaphase. […] Fluorescence is observed using an ATTUNE flow cytometer (Invitrogen, Paisley, UK), gating for lymphocytes.
# [4] = test system: β-catenin; assay: (m) Accumulation of β catenin in d-U937 cells; type: cell-based, human; conditions: Reference Compound at 1 μg/mL defined as 100%
# Experimental: U937 cells, a human monocytic cell line, are differentiated into macrophage-type cells by incubation with PMA; (100 ng/mL) for between 48 to 72 hr. The cells are then incubated with either final concentrations of test compound or vehicle for 18 hr. The induction of β-catenin by the test compounds is stopped by replacing the media with 4% formaldehyde solution. Endogenous peroxide activity is neutralised by incubating with quenching buffer (100 μL, 0.1% sodium azide, 1% H2O2 in PBS with 0.05% Tween-20) for 20 min. The cells are washed with washing buffer (200 μL; PBS containing 0.05% Tween-20) and incubated with blocking solution (200 μL; 5% milk in PBS) for 1 hr, re-washed with washing buffer (200 μL) and then incubated overnight with anti-β-catenin antibody solution (50 μL) in 1% BSA/PBS (BD, Oxford, UK).
# After washing with washing buffer (3×200 μL; PBS containing 0.05% Tween-20), cells are incubated with an HRP-conjugated secondary antibody solution (100 μL) in 1% BSA/PBS (Dako, Cambridge, UK) and the resultant signal is determined colourimetrically (OD: 450 nm with a reference wavelength of 655 nm) using TMB substrate (50 μL; R&D Systems, Abingdon, UK). This reaction is stopped by addition of 1N H2SO4 solution (50 μL). Cells are then washed with washing buffer and 2% crystal violet solution (50 μL) is applied for 30 min. After washing with washing buffer (3×200 μL), 1% SDS (100 μL) is added to each well and the plates are shaken lightly for 1 hr prior to measuring the absorbance at 595 nm (Varioskan® Flash, Thermo-Fisher Scientific).
# The measured OD450-655 readings are corrected for cell number by dividing the OD450-655 by the OD595 readings.
# [5] = molecular target: p38 MAPKα (Homo sapiens (Human), UniProt Q16539); assay: p38 MAPKα enzyme inhibition (FRET, Method 2); type: biochemical
# p38 MAPKα, sequence (Q16539 whole entry): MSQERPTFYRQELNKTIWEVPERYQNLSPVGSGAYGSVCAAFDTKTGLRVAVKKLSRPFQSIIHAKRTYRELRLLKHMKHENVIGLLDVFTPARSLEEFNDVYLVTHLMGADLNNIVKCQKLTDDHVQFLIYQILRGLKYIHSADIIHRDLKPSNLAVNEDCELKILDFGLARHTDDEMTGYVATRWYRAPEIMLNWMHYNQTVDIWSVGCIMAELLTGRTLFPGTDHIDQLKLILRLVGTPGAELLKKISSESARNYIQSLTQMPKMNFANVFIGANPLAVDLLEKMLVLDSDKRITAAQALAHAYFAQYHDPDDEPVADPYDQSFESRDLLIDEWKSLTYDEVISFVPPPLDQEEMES
# Experimental: as §1
# The inhibitory activities of test compounds against the p38 MAPKα isoform (MAPK14: Invitrogen), are evaluated indirectly by determining the level of activation/phosphorylation of the down-stream molecule, MAPKAP-K2. The p38 MAPKα protein (80 ng/mL, 2.5 μL) is mixed with the test compound (2.5 μL of either 4 μg/mL, 0.4 μg/mL, 0.04 μg/mL or 0.004 μg/mL) for 2 hr at RT. […] The mixture is incubated for 1 hr at RT. Development reagent (protease, 5 μL) is added for 1 hr prior to detection in a fluorescence microplate reader (Varioskan® Flash, ThermoFisher Scientific).
# as §3
# [6] = test system: PBMCs; assay: (b) LPS-induced TNFα/IL-8 release in PBMC cells; type: cell-based; conditions: Homo sapiens, read-out: IC50 for Inhibition of Cytokine Release, IL-8
# Experimental: Peripheral blood mononuclear cells (PBMCs) from healthy subjects are separated from whole blood using a density gradient (Lymphoprep, Axis-Shield Healthcare). The PBMCs are seeded in 96 well plates and treated with compounds at the desired concentration for 2 hours before addition of 1 ng/ml LPS (Escherichia Coli 0111:B4 from Sigma Aldrich) for 24 hours under normal tissue culture conditions (37° C., 5% CO2). The supernatant is harvested for determination of IL-8 and TNFα concentrations by sandwich ELISA (Duo-set, R&D systems) and read on the fluorescence microplate reader (Varioskan® Flash, ThermoFisher Scientific).
# [7] = molecular target: GSK3α (Homo sapiens (Human), UniProt P49840); assay: GSK 3α enzyme inhibition (FRET, Method 2); type: biochemical
# GSK3α, sequence (P49840 whole entry): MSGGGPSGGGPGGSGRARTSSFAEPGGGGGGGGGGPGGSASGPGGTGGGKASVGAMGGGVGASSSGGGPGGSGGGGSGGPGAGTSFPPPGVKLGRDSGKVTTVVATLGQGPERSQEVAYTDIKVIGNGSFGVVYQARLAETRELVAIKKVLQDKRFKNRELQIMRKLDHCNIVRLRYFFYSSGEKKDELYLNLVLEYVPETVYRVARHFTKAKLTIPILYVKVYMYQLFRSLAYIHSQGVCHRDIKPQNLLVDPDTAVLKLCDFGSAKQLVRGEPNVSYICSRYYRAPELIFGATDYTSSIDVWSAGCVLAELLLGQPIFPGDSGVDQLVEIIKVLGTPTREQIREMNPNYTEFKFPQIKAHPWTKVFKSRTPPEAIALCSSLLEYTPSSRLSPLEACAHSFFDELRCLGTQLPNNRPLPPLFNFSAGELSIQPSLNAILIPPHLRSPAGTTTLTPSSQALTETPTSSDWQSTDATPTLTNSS
# Experimental: as §1
# The inhibitory activities of compounds of the invention against the GSK 3α enzyme isoform (Invitrogen), are evaluated by determining the level of activation/phosphorylation of the target peptide. The GSK3-α protein (500 ng/mL, 2.5 μL) is mixed with the test compound (2.5 μL at either 4 μg/mL, 0.4 μg/mL, 0.04 μg/mL, or 0.004 μg/mL) for 2 hr at RT. The FRET peptide (8 μM, 2.5 μL), which is a phosphorylation target for GSK3α, and ATP (40 μM, 2.5 μL) are then added to the enzyme/compound mixture and the resulting mixture incubated for 1 hr. Development reagent (protease, 5 μL) is added for 1 hr prior to detection in a fluorescence microplate reader (Varioskan® Flash, ThermoFisher Scientific).
# as §3
# [8] = molecular target: c-Src (Homo sapiens (Human), UniProt P12931); assay: c-Src enzyme inhibition (FRET); type: biochemical
# c-Src, sequence (P12931 whole entry, looked up): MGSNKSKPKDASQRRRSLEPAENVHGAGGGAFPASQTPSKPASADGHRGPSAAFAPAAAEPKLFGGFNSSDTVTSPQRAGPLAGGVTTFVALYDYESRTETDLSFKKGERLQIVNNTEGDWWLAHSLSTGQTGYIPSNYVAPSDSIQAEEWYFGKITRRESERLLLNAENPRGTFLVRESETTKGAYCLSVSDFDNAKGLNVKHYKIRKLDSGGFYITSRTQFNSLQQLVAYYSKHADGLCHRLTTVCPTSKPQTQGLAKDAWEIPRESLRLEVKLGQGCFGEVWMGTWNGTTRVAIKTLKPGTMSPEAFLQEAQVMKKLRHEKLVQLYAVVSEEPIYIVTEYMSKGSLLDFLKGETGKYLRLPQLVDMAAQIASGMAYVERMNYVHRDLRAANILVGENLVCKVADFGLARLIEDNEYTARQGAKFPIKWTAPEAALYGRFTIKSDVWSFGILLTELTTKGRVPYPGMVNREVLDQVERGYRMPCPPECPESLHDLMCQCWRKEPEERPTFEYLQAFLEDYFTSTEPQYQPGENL
# Experimental: as §1, §2, §3
# [9] = test system: HT29 cells; assay: (d) IL-1β-induced IL-8 release in HT29 cells; type: cell-based; conditions: Homo sapiens, HT-29, read-out: IC50 for Inhibition of Cytokine Release, IL-8
# Experimental: HT29 cells, a human colon adenocarcinoma cell line, are plated in a 96 well plate (24 hrs) and pre-treated with compounds at the desired concentration for 2 hours before addition of 5 ng/ml of IL-1β (Abeam) for 24 hours. Supernatants are harvested for IL-8 quantification by Sandwich ELISA (Duo-set, R&D System). The IC50 is determined from the dose response curve.
# [10] = Hydrolytic stability study in DMSO and water (3:1); type: physicochemical; conditions: 1 mg/mL
# Experimental: General HPLC Procedure • Agilent, Waters X-Select C18, 2.5 μm, 4.6×30 mm column, 4 min method, 5-95% MeCN/water (0.1% formic acid). • Flow rate 2.5 ml/min • Column Oven Temperature 40° C. • Detection 254 nm.
# Sample Preparation • A 1.0 mg sample of test compound was dissolved in 750 μL of DMSO. Water (250 μL) was added slowly, ensuring no precipitation occurred.
# Recording Stability • A 50 μL aliquot of the test solution was removed and analysed in duplicate by 5 μL HPLC injections. The peak area for the test compound was recorded following manual integration of the corresponding UV trace. • The test solution was heated to 60° C., with stirring, and 50 μL aliquots removed for HPLC analysis at 5 and 24 h timepoints.
# [11] = read-out: IC50 for Inhibition of Cytokine Release, IFNγ
# [12] = read-out: IC50 for Inhibition of Cytokine Release, IL-2
IC50 [2] [nM],IC50 [5] [nM],IC50 [7] [nM],IC50 [8] [nM],IC50 [9] [nM],% left ([10]; 0 min) [%],"% left ([10]; 60° C., 300 min) [%]","% left ([10]; 60° C., 1440 min) [%]",Compound,"IC50 [1, 11] [nM]","IC50 [1, 12] [nM]",inhibition at 5 µg/mL [3] [%],% β-catenin induction ([4]; 1 μg/mL) [%],% β-catenin induction ([4]; 5 μg/mL) [%],IC50 [6] [nM],% β-catenin induction ([4]; 10 μg/mL) [%]
96,–,–,17,2.4,–,–,–,"[2H]c1c([2H])c(C([2H])([2H])[2H])c([2H])c([2H])c1-n1nc(C(C)(C)C)cc1NC(=O)Nc1ccc(Oc2ccnc(Nc3cc(C#C)cc(C(=O)NCCOCCOCCOC)c3)n2)c2ccccc12 [Example 6, 3-((4-((4-(3-(3-(tert-Butyl)-1-(2,3,5,6-tetradeutero-4-(trideuteromethyl)-phenyl)-1H-pyrazol-5-yl)ureido)naphthalen-1-yl)oxy)pyrimidin-2-yl)amino)-5-ethynyl-N-(2-(2-(2-methoxyethoxy)ethoxy)ethyl)benzamide]",2.9,123,10.2,3,3,2.3,−1
237,88,2020,18,1.6,–,–,–,"C#Cc1cc(Nc2nccc(Oc3ccc(NC(=O)Nc4cc(C(C)(C)C)nn4-c4ccc(C)cc4)c4ccccc34)n2)cc(C(=O)NCCOCCOCCOCCOC)c1 [Example 7, 3-((4-((4-(3-(3-(tert-Butyl)-1-(p-tolyl)-1H-pyrazol-5-yl)ureido)naphthalen-1-yl)oxy)pyrimidin-2-yl)amino)-5-ethynyl-N-(2,5,8,11-tetraoxatridecan-13-yl)benzamide]",3.7,91,9.1,0,−2,2.4,−5

# The remaining lines, values behind:
Compound,IC50 [2] [nM],IC50 [5] [nM],IC50 [7] [nM],IC50 [8] [nM],IC50 [9] [nM],% left ([10]; 0 min) [%],"% left ([10]; 60° C., 300 min) [%]","% left ([10]; 60° C., 1440 min) [%]","IC50 [1, 11] [nM]","IC50 [1, 12] [nM]",inhibition at 5 µg/mL [3] [%],% β-catenin induction ([4]; 1 μg/mL) [%],% β-catenin induction ([4]; 5 μg/mL) [%],IC50 [6] [nM],% β-catenin induction ([4]; 10 μg/mL) [%]
"COCCOCCOCCNC(=O)c1cc(Nc2cc(Oc3ccc(NC(=O)Nc4cc(C(C)(C)C)nn4-c4ccc(C)cc4)c4ccccc34)ccn2)cc(OC)c1 [Example 4, 3-((4-((4-(3-(3-(tert-Butyl)-1-(p-tolyl)-1H-pyrazol-5-yl)ureido)naphthalen-1-yl)oxy)pyridin-2-yl)amino)-5-methoxy-N-(2-(2-(2-methoxyethoxy)ethoxy)ethyl)-benzamide]",46,50,9550,19,5.3,–,–,–,2.4,37.4,38.8,5,12,1.4,–
"C#Cc1cc(Nc2nccc(Oc3ccc(NC(=O)Nc4cc(C(C)(C)C)nn4-c4ccc(C)cc4)c4ccccc34)n2)cc(C(=O)NCCOCCOC)c1 [Example 8, 3-((4-((4-(3-(3-(tert-Butyl)-1-(p-tolyl)-1H-pyrazol-5-yl)ureido)naphthalen-1-yl)oxy)pyrimidin-2-yl)amino)-5-ethynyl-N-(2-(2-methoxyethoxy)ethyl)benzamide]",120,104,2890,20,3.2,–,–,–,8.5,55,6.1,6,3,1.6,2
"C#Cc1cc(Nc2nccc(Oc3ccc(NC(=O)Nc4cc(C(C)C)nn4-c4ccc(C)cc4)c4ccccc34)n2)cc(C(=O)NCCN2CCOCC2)c1 [Reference Compound A, 3-ethynyl-5-((4-((4-(3-(3-isopropyl-1-(p-tolyl)-1H-pyrazol-5-yl)ureido)naphthalen-1-yl)oxy)pyrimidin-2-yl)amino)-N-(2-morpholinoethyl)benzamide, reference compound]",–,–,–,–,–,100,82,36,–,–,–,–,–,–,–
